# Read-outs that look alike come from different tables or passages of the source.
# How the values were obtained:
# Assay type in all cases: in vivo
# Avena fatua (AVEFA) [1] = test: Pre-emergence herbicidal action against AVEFA; details: 320 g/ha, visual scoring after about 3 weeks vs untreated controls
# Procedure, shortened: (§1)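 Seeds sown in pots and covered with soil; WP or EC formulations sprayed onto the soil surface at 600 l/ha water with 0.5% additive, at 320 g/ha or lower. Greenhouse growth for about 3 weeks, then visual scoring as % effect against untreated controls (100% = plants dead).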
# [2] = tested on: Abutilon theophrasti (ABUTH); test: Post-emergence herbicidal action against ABUTH; details: 80 g/ha, visual rating about 3 weeks after treatment vs untreated controls (100% = plants have died, 0% = like control plants)
# Procedure, shortened: (§2)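 Doses of 320 g/ha or lower, suffixes a, b and c marking different dosages, were applied post-emergence at the one-leaf stage in 600 l/ha water with 0.5% additive. Damage was assessed visually after about 3 weeks in the greenhouse.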
# [3] = tested on: Pharbitis purpurea (PHBPU); test: Post-emergence herbicidal action against PHBPU; details: dosage 80 g/ha
# Procedure, shortened: as §2
# [4] = tested on: Alopecurus myosuroides (ALOMY); test: Post-emergence herbicidal action against ALOMY; details: 80 g/ha, visual rating about 3 weeks after treatment vs untreated controls (100% = plants have died, 0% = like control plants)
# Procedure, shortened: as §2
# [5] = tested on: Matricaria inodora (MATIN); test: Pre-emergence herbicidal action against MATIN; details: dosage 320 g/ha
# Procedure, shortened: as §1
# Lolium rigidum (LOLRI) = test: Pre-emergence herbicidal action against LOLRI
# Procedure, shortened: as §1
# [6] = tested on: Verconica persica (VERPE); test: Post-emergence herbicidal action against VERPE; details: dosage 80 g/ha
# Procedure, shortened: as §2
# Setaria viridis (SETVI) [7] = test: Pre-emergence herbicidal action against SETVI
# Procedure, shortened: as §1
# [8] = tested on: Amaranthus retroflexus (AMARE); test: Pre-emergence herbicidal action against AMARE; details: visual scoring after about 3 weeks vs untreated controls
# Procedure, shortened: as §1
# [9] = tested on: Amaranthus retroflexus (AMARE); test: Post-emergence herbicidal action against AMARE; details: 80 g/ha, visual rating about 3 weeks after treatment vs untreated controls (100% = plants have died, 0% = like control plants)
# Procedure, shortened: as §2
# [10] = tested on: Verconica persica (VERPE); test: Pre-emergence herbicidal action against VERPE
# Procedure, shortened: as §1
# [11] = tested on: Polygonum convolvulus (POLCO); test: Pre-emergence herbicidal action against POLCO
# Procedure, shortened: as §1
# [12] = tested on: Echinochloa crus-galli (ECHCG); test: Pre-emergence herbicidal action against ECHCG; details: dosage 320 g/ha
# Procedure, shortened: as §1
# Setaria viridis (SETVI) [13] = test: Post-emergence herbicidal action against SETVI; details: dosage 80 g/ha
# Procedure, shortened: as §2
# [14] = tested on: Alopecurus myosuroides (ALOMY); test: Pre-emergence herbicidal action against ALOMY; details: scored visually after about 3 weeks, 100% = plants have died
# Procedure, shortened: as §1
# [15] = tested on: Digitaria sanguinalis (DIGSA); test: Pre-emergence herbicidal action against DIGSA
# Excerpt: Seeds of monocotyledonous and dicotyledonous weed plants and crop plants are placed in plastic or organic planting pots and covered with soil. The compounds of the invention, formulated in the form of wettable powders (WP) or as emulsion concentrates (EC), are then applied to the surface of the covering soil as aqueous suspension or emulsion with addition of 0.5% additive at a water application rate equivalent to 600 l/ha. After the treatment, the pots are placed in a greenhouse and kept under good growth conditions for the trial plants. After about 3 weeks, the effect of the preparations is scored visually in comparison with untreated controls as percentages. For example, 100% activity=the plants have died, 0% activity=like control plants.
# Tables A1 to A13 below show the effects of selected compounds of the general formula (I) on various harmful plants and at an application rate corresponding to 320 g/ha or lower, which were obtained by the experimental procedure mentioned above. The appendices “a”, “b” and “c” give differentiation by dosage used with otherwise the same harmful plants tested.
# [16] = tested on: Pharbitis purpurea (PHBPU); test: Pre-emergence herbicidal action against PHBPU; details: dosage 320 g/ha
# Procedure, shortened: as §1
# [17] = tested on: Polygonum convolvulus (POLCO); test: Post-emergence herbicidal action against POLCO; details: dosage 80 g/ha
# Procedure, shortened: as §2
# Viola tricolor (VIOTR) [18] = test: Pre-emergence herbicidal action against VIOTR
# Procedure, shortened: as §1
# [19] = tested on: Digitaria sanguinalis (DIGSA); test: Post-emergence herbicidal action against DIGSA; details: 80 g/ha, visual rating about 3 weeks after treatment
# Procedure, shortened: as §2
# [20] = tested on: Echinochloa crus-galli (ECHCG); test: Post-emergence herbicidal action against ECHCG; details: dosage 80 g/ha
# Procedure, shortened: as §2
# Avena fatua (AVEFA) [21] = test: Post-emergence herbicidal action against AVEFA; details: 80 g/ha, visual rating about 3 weeks after treatment
# Procedure, shortened: as §2
# Viola tricolor (VIOTR) [22] = test: Post-emergence herbicidal action against VIOTR; details: 80 g/ha
# Procedure, shortened: as §2
# Zea mays (ZEAMX) = tested on: Zea mays (ZEAMX)
# Procedure, shortened: (§3)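 Test crops were treated 2 to 3 weeks after sowing, once they reached one leaf, by spraying compound in water with 0.5% additive at 600 l/ha. Visual scoring compared them with untreated controls roughly 3 weeks on, and appendices a, b and c denote different doses.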
# Oryza sativa (ORYSA) = details: crop plant compatibility
# Procedure, shortened: as §3
# [23] = 80 g/ha, visual scoring after about 3 weeks vs untreated controls
Structure (SMILES),Pre-emergence action against AVEFA in % (Avena fatua (AVEFA) [1]) [%],Post-emergence action against ABUTH in % [2] [%],Post-emergence action against PHBPU in % [3] [%],Post-emergence action against ALOMY in % [4] [%],Pre-emergence action against MATIN in % [5] [%],Pre-emergence action against LOLRI in % (Lolium rigidum (LOLRI); dosage 80 g/ha) [%],Pre-emergence action against LOLRI in % (Lolium rigidum (LOLRI); dosage 320 g/ha) [%],Post-emergence action against VERPE in % [6] [%],Pre-emergence action against SETVI in % (Setaria viridis (SETVI) [7]; dosage 320 g/ha) [%],Pre-emergence action against AMARE in % ([8]; 80 g/ha) [%],Pre-emergence action against AMARE in % ([8]; 320 g/ha) [%],Post-emergence action against AMARE in % [9] [%],Pre-emergence action against VERPE in % ([10]; dosage 320 g/ha) [%],Pre-emergence action against POLCO in % ([11]; dosage 80 g/ha) [%],Pre-emergence action against POLCO in % ([11]; dosage 320 g/ha) [%],Pre-emergence action against ECHCG in % [12] [%],Pre-emergence action against ALOMY ([14]; 80 g/ha) [%],Pre-emergence action against ALOMY ([14]; 320 g/ha) [%],"Pre-emergence action against DIGSA in % [15, 23] [%]",Pre-emergence action against DIGSA in % ([15]; dosage 320 g/ha) [%],other results
COCCOCCOC(=O)COc1nn(-c2ncccc2F)c(-c2ccc(F)nc2)c1Br [Example I-37],90,80,80,90,100,80,100,80,100,100,100,90,100,80,90,100,100,100,100,100,"Pre-emergence action against SETVI in % (Setaria viridis (SETVI) [7]; dosage 80 g/ha): 100%; Pre-emergence action against VERPE in % ([10]; dosage 80 g/ha): 80%; Post-emergence action against SETVI in % (Setaria viridis (SETVI) [13]): 80%; Pre-emergence action against PHBPU in % [16]: 90%; Post-emergence action against POLCO in % [17]: 80%; Pre-emergence action against VIOTR in % (Viola tricolor (VIOTR) [18]; 320 g/ha, Viola tricolor): 100%; Pre-emergence action against VIOTR in % (Viola tricolor (VIOTR) [18]; dosage 80 g/ha): 100%; Post-emergence action against DIGSA in % [19]: 90%; Post-emergence action against ECHCG in % [20]: 80%"
CCOC(=O)COc1nn(-c2ncccc2F)c(-c2ccc(F)nc2)c1C(F)(F)F [Example I-56],100,80,80,90,100,100,100,80,100,100,100,80,100,80,90,100,100,100,100,100,"Post-emergence action against AVEFA in % (Avena fatua (AVEFA) [21]): 80%; Post-emergence action against VIOTR in % (Viola tricolor (VIOTR) [22]): 80%; Post-emergence action against ZEAMX in % (crop plant compatibility) (Zea mays (ZEAMX); 20 g/ha, ZEAMX, effect in comparison to untreated controls): 0%; Post-emergence action against ZEAMX in % (Zea mays (ZEAMX); crop plant compatibility, 80 g/ha, effect vs untreated controls): 0%; Post-emergence action against ORYSA in % (Oryza sativa (ORYSA); 20 g/ha, effect vs untreated controls): 0%; Post-emergence action against ORYSA in % (Oryza sativa (ORYSA); 80 g/ha, effect in comparison to untreated controls): 0%; Pre-emergence action against PHBPU in % [16]: 90%; Post-emergence action against POLCO in % [17]: 80%; Pre-emergence action against VIOTR in % (Viola tricolor (VIOTR) [18]; 320 g/ha, Viola tricolor): 100%; Pre-emergence action against VIOTR in % (Viola tricolor (VIOTR) [18]; dosage 80 g/ha): 100%; Post-emergence action against DIGSA in % [19]: 90%"

# From patent US20240041042A1, “1-(PYRIDYL)-5-AZINYLPYRAZOLE DERIVATIVES, AND THEIR USE FOR CONTROL OF UNDESIRED PLANT GROWTH” (Bayer Aktiengesellschaft, priority 2020, published 2024)
